Experimental data published in patent publication US20130197023A1, “NEUROPROTECTION BY PHARMACOLOGICAL CHAPERONING OF NICOTINIC ACETYLCHOLINE RECEPTORS” (priority 2012, published 2013).
Like-named read-outs stand apart in the source and are kept apart here.

What was measured:
[1] = target: T1, α4-eGFPβ2-wt nAChRs (Mus musculus, UniProt O70174+Q9ERK7); type: cell-based
T1 construct: expressed in transfected cells; host or cells: mouse Neuro-2a cells
Text: Details of the quantification method have been previously described (Srinivasan et al., 2011). Briefly, PM fluorescence was extracted as follows: Raw TIRF images were converted to background-subtracted images and the ER fluorescence was thresholded and selected. ER fluorescence was then subtracted from the original image to generate images with PM fluorescence signals. These procedures yielded a dataset of several hundred thousand pixel intensities over the 15-50 cells in each experimental group. Fluorescence intensities are simply the sum of pixel values for either the PM or the ER or the ER+PM (using whole TIRF footprint images). Mean PM fluorescence intensity was derived by dividing the total fluorescence intensity for each experimental group by the number of imaged cells and normalized to intensity of untreated cells. Ratios of fluorescence intensities for the whole TIRF footprint (ER+PM) to ER were used to determine the post-Golgi fraction of receptors. For PM integrated density measurements, rather than plotting SEMs (which would be indistinguishably small on the plots), we have used “error bars” to depict 99% confidence intervals based on a two-tailed t-test. Measurements from drug treated cells were normalized to values of untreated cells imaged on the same day. DHβE TIRF experiments were performed on a different day from nicotine and cytisine experiments.

[2] = target: α4β4 receptors (Mus musculus, UniProt O70174+Q8R493); settings: acute nicotine, 1 μM
Procedure: Additional experiments examined the effect of acute nicotine at a higher concentration (1 μM) on α4β4 receptors as well.

[3] = target: α4β2 nAChRs (Mus musculus, UniProt O70174+Q9ERK7)
Text: For NFRET experiments, Neuro-2a cells were transfected with GaIT-eCFP+α4-mcherry+β2-eGFP subunits. GaIT-eCFP was used to label the TG, TGN (Schaub et al., 2006). Cells transfected with α4-mcherryβ2wt or α4wtβ2-eGFP nAChRs were included in every imaging session to control for pixel saturation and spectral bleedthrough. Live cells were imaged using an Eclipse C1si laser scanning confocal microscope. During image acquisition, cells were focused to a plane where the GaIT-eCFP fluorescence was best visualized. Images with emission spectra for eCFP, eGFP and mcherry were acquired in 5-nm bins between 470 and 620 nm. 439, 488 and 561 nm laser lines were used to excite eCFP, eGFP and mcherry respectively. Images were linearly unmixed using reference spectra for eCFP, eGFP and mcherry with emission maxima at 477, 508 and 608 nm. Reference spectra were acquired from Neuro-2a cells transfected with either GaIT-eCFP or α4-mcherryβ2wt or α4wtβ2-eGFP during the same imaging session. Linear unmixing was used to separate all three emission spectra from each image. Linearly unmixed images were compiled into donor spectral bleed-through stacks, acceptor spectral bleed-through stacks, and sample image stacks.
The PixFRET ImageJ plugin was used to determine the eGFP and mcherry spectral bleedthrough (BT) values and to calculate the net FRET (nF) (equation 1) and normalized FRET (NFRET) at each pixel. With the background and bleed-through corrections set, the nF for each pixel as described by equation 1 was calculated and the data were presented as 32-bit images. nF was divided by the square root of eGFP and mcherry intensities (equation 2) to obtain the normalized FRET (NFRET) value at each pixel. FRET normalization was used to control for large differences in fluorophore expression within subcellular regions and between different cells in a dish.
where, nF=net FRET, IFRET=mcherry sensitized emission with 488 nm excitation, IeGFP=eGFP emission with 488 nm excitation, BTeGFP=spectral bleedthrough of eGFP emission into mcherry emission spectra at 488 nm excitation, Imcherry=mcherry emission with 561 nm excitation and BTmcherry=spectral bleedthrough of mcherry emission into eGFP emission spectra at 561 nm excitation. IFRET, IeGFP and Imcherry were obtained from Neuro-2a cells transfected with GaIT-eCFP+α4-mcherry+β2-eGFP. BTeGFP and BTmcherry values were obtained from Neuro-2a cells transfected with α4-mcherry+β2wt and α4wt+β2-eGFP respectively.
Histograms of NFRET (x-axis) versus number of pixels (y-axis) of each imaged cell were compiled for either the whole cell sections or the TG, TGN ROIs, demarcated by intensity-based thresholding of GaIT-eCFP fluorescence. Frequency histograms obtained in this way (omitting values of zero) were merged for all cells in each experimental group and fitted to two Gaussian components such that a minimum goodness of fit (R^2) value of 0.995 was achieved. Ratios of area under the curve for the two Gaussian components with high and low mean NFRET values were used to determine changes in receptor stoichiometry between experimental groups: NFRET histograms were fitted to Gaussian components, yielding the total pixel area under either the A1 (low mean NFRET fit) or A2 (high mean NFRET fit) components. For quantitative measurements of stoichiometry, we compared the fractional area (FA) for the low NFRET component in each case as given by the following equation:
where, FA=fractional area, A1=area under the curve for low mean NFRET Gaussian component and A2=area under the curve for high mean NFRET Gaussian component.
Due to variability resulting from cell passage number, we imaged untreated control cells on the same day to compare and evaluate the effects of drug exposure on stoichiometry.

[4] = tested on: eIF2α; settings: 24 h, 0.1 μM nicotine; for whole cell and cytoplasmic peIF2α fluorescence: p=0.06
Procedure: (§1) Cortical neurons were extracted from day 17 mouse embryos; 150,000 cells were plated in each 35 mm poly-l-lysine-coated glass bottom culture dish in a solution containing Neurobasal, B27, and Glutamax supplemented with 3% equine serum. On day four of culture, neurons were treated with 1 μM cytosine arabinoside. Neurons were maintained via 50% exchange with feeding medium (Neurobasal, B27, and Glutamax) twice per wk. Neurons were transfected five days after plating as follows: 1 μg of each nAChR subunit plasmid was incubated with 20 μg Nupherin Neuron in 400 μl of Neurobasal medium. 10 μL of Lipofectamine 2000 was separately incubated for 15 min in 400 μl Neurobasal medium. The two solutions were combined and incubated for 45 min at room temperature, then applied to cells. After 1 hr incubation, the total medium was replaced with fresh 2 ml medium with or without 0.1 μM nicotine. For immunostaining, cultures were fixed the following day with 4% paraformaldehyde (10 min), permeabilized in 0.02% Tris-buffered saline (TBS)-TritonX (15 min) and blocked in 10% goat serum (30 min). Following 2×TBS washes, the appropriate primary antibody in 1% goat serum was applied overnight at 4° C. The following day cultures were rinsed in TBS, and incubated in 1% goat serum containing secondary antibody (1:5000) (30 min). Cells were rinsed in TBS and imaged immediately.
(§2) Immunostaining employed ATF6 mouse monoclonal (Abcam, 11909, 1:50 dilution), rabbit polyclonal peIF2α and total eIF2α (Cell Signaling Technology, 9721 and 5324, both 1:200 dilution). Alexa 488-labeled secondary antibodies were used (Invitrogen, donkey anti-mouse and goat anti-rabbit).

[5] = tested on: ATF6; settings: 24 hr, 0.1 μM nicotine
Procedure: as §1, §2

[6] = octanol and water, PubChem Compound; cited from earlier work
[7] = tested on: ER exit sites (ERES); type: cell-based, mouse
Procedure: Mouse Neuro-2a cells were cultured using standard tissue culture techniques and maintained in 45% DMEM, 45% OptiMEM and 10% FBS. Plasmid concentrations used for transfection were as follows: 500 ng of each nAChR subunit, 75 ng of pCS2-mcherry, 250 ng of Sec24D constructs, 100 ng of pDsRed2-ER, 250 ng of GaIT-eCFP and 500 ng of ATF6-eGFP. 90,000 cells were plated in poly-D-lysine coated 35 mm MatTek glass bottom imaging dishes. The following day, plasmid DNA was mixed with cationic lipids by adding appropriate DNA concentrations to 4 μl of Expressfect transfection reagent in 200 μl DMEM final volume and incubated for 20 min at room temperature to form cationic lipid-DNA complexes. DMEM+DNA-lipid complexes were added to Neuro-2a cells in 1 ml of DMEM+10% FBS and incubated at 37° C. for 4 h. Dishes were rinsed 2× with DMEM, then filled with 3 ml of DMEM+10% FBS and incubated at 37° C. for 48 h. Nicotine, cytisine or DHβE was added at appropriate concentrations during the change of medium following 4 h incubation with Expressfect-plasmid DNA complexes.
Neuro-2a cells were co-transfected with 500 ng each of α4-mcherry and β2-wt nAChR subunits and 250 ng of the ERES marker, Sec24D-eGFP. Each cell was focused to a plane where the maximum ERES were visualized. Sequential images of eGFP and mcherry fluorescence were obtained and linearly unmixed. For quantification, ERES regions of interest (ROIs) were demarcated using intensity-based thresholding and counted for each cell using the particle analysis feature in ImageJ version 1.44 or later. The fluorescence intensity was obtained for each ERES body within the cells and average ERES intensity was plotted. Error bars for ERES measurements are ±standard error of mean (SEM) and p values are based on a 2-tailed t test.

[8] = tested on: Neuro-2a cells; type: cell-based, mouse
Procedure: Neuro-2a cells were transfected with α4-eGFP (500 ng)+β2wt (500 ng)+GaIT-mcherry (250 ng) or pDSred2-ER (100 ng) and cells were incubated for 48 h with appropriate concentrations of nicotine, cytisine or DHβE.
In ImageJ, background was subtracted, and DSred2-ER fluorescence was thresholded and demarcated for each cell.

T1 sequence (O70174 31-629): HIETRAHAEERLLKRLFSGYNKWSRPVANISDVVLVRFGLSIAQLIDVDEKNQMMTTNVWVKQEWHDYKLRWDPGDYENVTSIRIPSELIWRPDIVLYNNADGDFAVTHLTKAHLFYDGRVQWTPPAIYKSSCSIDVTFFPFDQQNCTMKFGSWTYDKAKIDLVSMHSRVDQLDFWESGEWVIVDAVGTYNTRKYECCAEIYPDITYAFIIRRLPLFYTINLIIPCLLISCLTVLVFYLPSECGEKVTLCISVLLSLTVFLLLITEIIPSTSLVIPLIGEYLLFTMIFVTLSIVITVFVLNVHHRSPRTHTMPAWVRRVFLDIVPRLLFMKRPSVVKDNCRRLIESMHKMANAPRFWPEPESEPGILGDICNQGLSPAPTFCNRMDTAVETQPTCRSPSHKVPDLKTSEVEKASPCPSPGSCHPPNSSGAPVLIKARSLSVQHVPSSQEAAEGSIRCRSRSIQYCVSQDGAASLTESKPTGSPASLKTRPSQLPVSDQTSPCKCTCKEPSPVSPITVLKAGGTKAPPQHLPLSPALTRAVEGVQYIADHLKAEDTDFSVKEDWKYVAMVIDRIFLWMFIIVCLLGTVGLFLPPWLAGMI
T1 sequence (Q9ERK7 26-501): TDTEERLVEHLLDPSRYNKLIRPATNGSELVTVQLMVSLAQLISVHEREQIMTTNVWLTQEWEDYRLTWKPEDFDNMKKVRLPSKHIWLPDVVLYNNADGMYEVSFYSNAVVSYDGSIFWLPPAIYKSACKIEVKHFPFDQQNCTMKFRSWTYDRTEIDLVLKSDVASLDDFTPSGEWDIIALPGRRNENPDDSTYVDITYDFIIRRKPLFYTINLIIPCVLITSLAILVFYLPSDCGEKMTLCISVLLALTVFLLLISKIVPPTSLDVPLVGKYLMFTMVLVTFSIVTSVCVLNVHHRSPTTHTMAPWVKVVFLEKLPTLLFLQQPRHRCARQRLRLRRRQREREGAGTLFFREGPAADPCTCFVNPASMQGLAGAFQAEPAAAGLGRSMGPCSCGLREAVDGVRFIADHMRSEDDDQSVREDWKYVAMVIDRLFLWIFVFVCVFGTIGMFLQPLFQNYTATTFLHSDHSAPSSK
α4β2 nAChRs, sequence (O70174 31-629): as the sequence (O70174 31-629) above
α4β2 nAChRs, sequence (Q9ERK7 26-501): as the sequence (Q9ERK7 26-501) above
α4β4 receptors, sequence (O70174 31-629): as the sequence (O70174 31-629) above
α4β4 receptors, sequence (Q8R493 21-495): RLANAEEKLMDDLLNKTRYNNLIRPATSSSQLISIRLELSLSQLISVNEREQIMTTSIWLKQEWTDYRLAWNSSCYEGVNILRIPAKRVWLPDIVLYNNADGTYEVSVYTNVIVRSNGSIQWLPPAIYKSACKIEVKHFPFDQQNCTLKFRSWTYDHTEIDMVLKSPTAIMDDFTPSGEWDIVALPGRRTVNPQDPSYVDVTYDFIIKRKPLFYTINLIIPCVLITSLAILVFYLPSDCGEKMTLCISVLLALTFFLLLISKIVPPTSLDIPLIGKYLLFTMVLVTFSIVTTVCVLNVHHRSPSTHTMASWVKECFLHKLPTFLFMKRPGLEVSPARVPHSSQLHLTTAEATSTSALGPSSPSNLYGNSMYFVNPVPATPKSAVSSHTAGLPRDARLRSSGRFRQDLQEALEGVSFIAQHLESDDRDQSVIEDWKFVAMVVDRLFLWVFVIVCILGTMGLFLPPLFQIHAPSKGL

SMILES: CN1CCCC1c1cccnc1 (stereo not shown) [Nicotine, nicotine]
- effect on the footprint/ER ratio (in words) [1]: reduction
- increase in PM-localized nAChRs [1]: 2 fold
- reduction of the footprint/ER ratio [1]: ~2 fold
- Fnic/F0 (SEP fluorescence, receptors in the membrane) [2]: 65%+/−0.03
- TG+TGN FA (fractional area of low NFRET component) [3]: 0.80
- whole cell FA (fractional area of low NFRET component) [3]: 0.74
- total eIF2α fluorescence within the cytoplasm or nucleus [4]: did not affect
- total eIF2α fluorescence within the cytoplasm or nucleus ([4]; listed as nicotine): without affecting
- whole cell and cytoplasmic peIF2α fluorescence [4]: near significant reduction
- whole cell and cytoplasmic peIF2α fluorescence ([4]; listed as nicotine): trend towards reduction
- reduction in the nucleus to whole cell ATF6 fluorescence ratio ([5]; compared to untreated cells): 50%
- α4-mcherryβ2wt-expressing cells showing nuclear ATF6 localization ([5]; 56% in the absence of nicotine): 14%
- logP [6]: 1.1
- increase in ERES fluorescence / formation of ERES [7]: ~2 fold
- effect on peripheral ER area (in words) [8]: increased
- increase in the average ER area [8]: 1.7 fold
